The subject of the assay is E. coli (ATTC 8739). The assay can be described thus: Zone of inhibition test in Petri dish. The class given is cell-based. The procedure:
Compound A was tested against L-phenylalanine-(S)-2-amino-N-hydroxy-4-(methylthio)butanamide hydrochloride (Example 3) in a side-by-side comparison in a conventional zone of inhibition test. In this test, both compounds were compared at various concentrations against E. coli (ATTC 8739) grown in a Petri dish using the antibiotic kanamycin as a control.

Structures can show the parent of a compound that is named as a salt. Non-standard residues stand in square brackets, D forms with d. Residues, ends and D or L forms follow the SMILES beside them. ξ: configuration not given here. *: point of attachment. ξW = NC(Cc1c[nH]c2ccccc12)C(=O)O; NHOH = ON*

Take `CSCC[C@H](NC(=O)C(N)Cc1c[nH]c2ccccc12)C(=O)NO` (stereo partly drawn) [Example 3, L-Tryptophan-(S)-2-amino-N-hydroxy-4-(methylthio)butanamide hydrochloride] (H-[ξW]-Met-{NHOH}): for the setting “Petri dish, kanamycin control, FIG. 1A/1B”, the “concentration at which a zone of inhibition was shown” value was found to be 12.5 µg. Also, for the setting “at 12.5 μg”, the “strength of zone of inhibition compared with cpd. A at 50 μg” value was “substantially stronger”.

As for `CSCC[C@H](NC(=O)CN)C(=O)NO` [Compound A, reference compound], the “strength of zone of inhibition” value (at 50 μg) is reported as “quite weak”.

The record behind these values is patent publication US20180340008A1, “ANTIBIOTIC OLIGOPEPTIDE MIMETICS” (priority 2017, published 2018).
